Test results: the NIST ThermoML archive (doi:10.1021/je700406p)

Assay: wn = mass fraction of the nth substance listed
Conditions: Liquid, Vibrating tube method

CC(C)(N)CO [2-amino-2-methylpropan-1-ol] + O
Conditions	mass density [kg/m3]
323.09 K, 19985 kPa, w1 = 0.4976	978
323.09 K, 20939 kPa, w1 = 0.4976	978.4
323.1 K, 513 kPa, w1 = 0.1997	984.2
323.1 K, 1002 kPa, w1 = 0.4002	978
323.1 K, 1007 kPa, w1 = 0.1997	984.4
323.1 K, 2005 kPa, w1 = 0.1997	984.8
323.1 K, 2023 kPa, w1 = 0.4002	978.4
323.1 K, 3001 kPa, w1 = 0.4002	978.9
323.1 K, 3005 kPa, w1 = 0.1997	985.1
323.1 K, 4001 kPa, w1 = 0.1997	985.5
323.1 K, 4011 kPa, w1 = 0.4002	979.2
323.1 K, 5000 kPa, w1 = 0.1997	986
323.1 K, 5000 kPa, w1 = 0.4002	979.7
323.1 K, 6002 kPa, w1 = 0.4002	980
323.1 K, 6003 kPa, w1 = 0.1997	986.3
323.1 K, 6999 kPa, w1 = 0.4002	980.4
323.1 K, 7003 kPa, w1 = 0.1997	986.8
323.1 K, 7990 kPa, w1 = 0.4002	980.8
323.1 K, 8001 kPa, w1 = 0.1997	987.1
323.1 K, 9002 kPa, w1 = 0.4002	981.2
323.1 K, 9013 kPa, w1 = 0.1997	987.5
323.1 K, 9990 kPa, w1 = 0.4002	981.6
323.1 K, 10002 kPa, w1 = 0.1997	987.9
323.1 K, 10992 kPa, w1 = 0.4002	982
323.1 K, 11001 kPa, w1 = 0.1997	988.3
323.1 K, 11996 kPa, w1 = 0.4002	982.5
323.1 K, 12004 kPa, w1 = 0.1997	988.7
323.1 K, 12990 kPa, w1 = 0.4002	982.8
323.1 K, 13009 kPa, w1 = 0.1997	989
323.1 K, 13994 kPa, w1 = 0.4002	983.2
323.1 K, 13999 kPa, w1 = 0.1997	989.4
323.1 K, 14992 kPa, w1 = 0.4002	983.6
323.1 K, 15001 kPa, w1 = 0.1997	989.8
323.1 K, 15995 kPa, w1 = 0.4002	984
323.1 K, 16002 kPa, w1 = 0.1997	990.2
323.1 K, 16986 kPa, w1 = 0.4002	984.4
323.1 K, 17001 kPa, w1 = 0.1997	990.6
323.1 K, 17993 kPa, w1 = 0.4002	984.8
323.1 K, 18004 kPa, w1 = 0.1997	991
323.1 K, 18995 kPa, w1 = 0.4002	985.1
323.1 K, 19000 kPa, w1 = 0.1997	991.4
323.1 K, 19992 kPa, w1 = 0.4002	985.5
323.1 K, 20030 kPa, w1 = 0.1997	991.7
323.1 K, 21005 kPa, w1 = 0.1997	992.1
323.1 K, 21297 kPa, w1 = 0.4002	986
323.1 K, 22004 kPa, w1 = 0.1997	992.5
323.1 K, 22998 kPa, w1 = 0.1997	992.9
323.1 K, 24004 kPa, w1 = 0.1997	993.3
332.01 K, 1005 kPa, w1 = 0.2821	976.1
332.01 K, 2004 kPa, w1 = 0.2821	976.5
332.01 K, 2997 kPa, w1 = 0.2821	977
332.01 K, 4002 kPa, w1 = 0.2821	977.4
332.01 K, 5002 kPa, w1 = 0.2821	977.8
332.01 K, 5997 kPa, w1 = 0.2821	978.2
332.01 K, 6999 kPa, w1 = 0.2821	978.6
332.01 K, 7996 kPa, w1 = 0.2821	979
332.01 K, 8992 kPa, w1 = 0.2821	979.4
332.01 K, 9994 kPa, w1 = 0.2821	979.8
332.01 K, 11040 kPa, w1 = 0.2821	980.2
332.01 K, 11992 kPa, w1 = 0.2821	980.6
332.01 K, 12990 kPa, w1 = 0.2821	981
332.01 K, 13989 kPa, w1 = 0.2821	981.4
332.01 K, 14989 kPa, w1 = 0.2821	981.8
332.01 K, 15990 kPa, w1 = 0.2821	982.2
332.01 K, 17000 kPa, w1 = 0.2821	982.5
332.01 K, 17987 kPa, w1 = 0.2821	982.9
332.01 K, 18991 kPa, w1 = 0.2821	983.3
332.01 K, 19984 kPa, w1 = 0.2821	983.7
332.01 K, 20986 kPa, w1 = 0.2821	984.1
332.99 K, 503 kPa, w1 = 0.1997	978.2
332.99 K, 1000 kPa, w1 = 0.1997	978.5
332.99 K, 2000 kPa, w1 = 0.1997	978.7
332.99 K, 3000 kPa, w1 = 0.1997	979.2
332.99 K, 4000 kPa, w1 = 0.1997	979.6
332.99 K, 5001 kPa, w1 = 0.1997	979.9
332.99 K, 6000 kPa, w1 = 0.1997	980.4
332.99 K, 7001 kPa, w1 = 0.1997	980.8
332.99 K, 8001 kPa, w1 = 0.1997	981.2
332.99 K, 9009 kPa, w1 = 0.1997	981.5
332.99 K, 10003 kPa, w1 = 0.1997	982
332.99 K, 11001 kPa, w1 = 0.1997	982.3
332.99 K, 12000 kPa, w1 = 0.1997	982.8
332.99 K, 13000 kPa, w1 = 0.1997	983.2
332.99 K, 14000 kPa, w1 = 0.1997	983.6
332.99 K, 14999 kPa, w1 = 0.1997	984
332.99 K, 16001 kPa, w1 = 0.1997	984.3
332.99 K, 17001 kPa, w1 = 0.1997	984.8
332.99 K, 18006 kPa, w1 = 0.1997	985.2
332.99 K, 19001 kPa, w1 = 0.1997	985.5
332.99 K, 20029 kPa, w1 = 0.1997	985.9
332.99 K, 21005 kPa, w1 = 0.1997	986.3
332.99 K, 22004 kPa, w1 = 0.1997	986.7
332.99 K, 23000 kPa, w1 = 0.1997	987
332.99 K, 24008 kPa, w1 = 0.1997	987.4
333.04 K, 1029 kPa, w1 = 0.4976	961.9
333.04 K, 1994 kPa, w1 = 0.4976	962.4
333.04 K, 3005 kPa, w1 = 0.4976	962.8
333.04 K, 4012 kPa, w1 = 0.4976	963.3
333.04 K, 4995 kPa, w1 = 0.4976	963.7
333.04 K, 5995 kPa, w1 = 0.4976	964.1
333.04 K, 7056 kPa, w1 = 0.4976	964.6
333.04 K, 7994 kPa, w1 = 0.4976	965
333.04 K, 8994 kPa, w1 = 0.4976	965.5
333.04 K, 9997 kPa, w1 = 0.4976	965.9
333.04 K, 10996 kPa, w1 = 0.4976	966.3
333.04 K, 11991 kPa, w1 = 0.4976	966.7
333.04 K, 12988 kPa, w1 = 0.4976	967.2
333.04 K, 13992 kPa, w1 = 0.4976	967.6
333.04 K, 14999 kPa, w1 = 0.4976	968
333.04 K, 15982 kPa, w1 = 0.4976	968.4
333.04 K, 16996 kPa, w1 = 0.4976	968.9
333.04 K, 17988 kPa, w1 = 0.4976	969.3
333.04 K, 18986 kPa, w1 = 0.4976	969.7
333.04 K, 19987 kPa, w1 = 0.4976	970.1
333.04 K, 21093 kPa, w1 = 0.4976	970.6
333.05 K, 1028 kPa, w1 = 0.4002	970.4
333.05 K, 1998 kPa, w1 = 0.4002	970.8
333.05 K, 3001 kPa, w1 = 0.4002	971.2
333.05 K, 4010 kPa, w1 = 0.4002	971.6
333.05 K, 5003 kPa, w1 = 0.4002	972.1
333.05 K, 5997 kPa, w1 = 0.4002	972.5
333.05 K, 7000 kPa, w1 = 0.4002	972.9
333.05 K, 8010 kPa, w1 = 0.4002	973.3
333.05 K, 8996 kPa, w1 = 0.4002	973.7
333.05 K, 9998 kPa, w1 = 0.4002	974.2
333.05 K, 10998 kPa, w1 = 0.4002	974.6
333.05 K, 12011 kPa, w1 = 0.4002	975
333.05 K, 13000 kPa, w1 = 0.4002	975.4
333.05 K, 13987 kPa, w1 = 0.4002	975.8
